According to ChEMBL document CHEMBL1201862, “PubChem BioAssay data set” (2004):
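Growth conditions: 96-well plates. Treatment: test compound, 48 hours, 5 concentrations. Analysis: linear interpolation between bracketing concentrations; unreached endpoints set to highest concentration. Here, GI50 denotes the concentration required for 50% inhibition of growth.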 Activity calls are given as the source filed them. No stated cut-off is given here; in the data, active = GI50 up to about 1.1 µM and inactive = higher.

How the values were obtained:
Assay in all cases: inhibition of tumour cell growth, NCI panel, 48 h
[1] = system: DLD-1
[2] = system: DMS-273
[3] = system: HOP-18
[4] = system: KM-20L2
[5] = system: LXFL 529
[6] = system: M19-MEL
[7] = system: RXF 631
[8] = system: SNB-78
[9] = system: XF498

Measured: GI50

CCOC(=O)C(=O)Nc1c(C)cccc1C(C)C
inactive: [1] > 100 µM | [2] > 100 µM | [3] > 100 µM | [4] > 100 µM | [5] > 100 µM | [6] > 100 µM | [7] > 100 µM | [8] > 100 µM | [9] > 100 µM

O=C(O)CNCc1c2ccccc2nc2ccccc12
inactive: [1] 33.3 µM | [2] 40.2 µM | [3] > 100 µM | [4] 29.3 µM | [5] 26.5 µM | [6] 54.7 µM | [8] 54 µM | [9] 28.8 µM

COC(=O)/C(=N/NC(=O)C[N+](C)(C)C)C(C(=O)OC)C(=O)C(=O)Nc1ccc(F)cc1 (stereo unspecified)
inactive: [1] > 100 µM | [2] > 100 µM | [3] > 100 µM | [4] > 100 µM | [5] > 100 µM | [6] > 100 µM | [7] > 100 µM | [8] > 100 µM

[Zn+2][N+]12CCN3CCN4CCN(CC1)[PH]432 (stereo unspecified)
inactive: [1] > 100 µM | [2] > 100 µM | [3] > 100 µM | [4] > 100 µM | [5] > 100 µM | [6] > 100 µM | [8] > 100 µM

CCCCCC(=O)OCCOCCOCCOCCOCCOCc1ccccc1
inactive: [1] > 100 µM | [2] > 100 µM | [3] > 100 µM | [4] > 100 µM | [8] > 100 µM | [9] > 100 µM

COC(=O)c1ccc(C(=O)OC)c2nc3cc(C)ccc3nc12
inactive: [1] > 100 µM | [2] > 100 µM | [3] > 100 µM | [4] > 100 µM | [5] > 100 µM | [7] > 100 µM | [8] > 100 µM | [9] > 100 µM

CCOc1ccc(NC(=O)CCC(=O)NN)cc1
inactive: [1] > 100 µM | [2] > 100 µM | [3] > 100 µM | [4] > 100 µM | [5] > 100 µM | [8] > 100 µM | [9] 31.7 µM

COc1ccccc1NC(=O)CC(=O)NNCC(=O)Nc1nnc(-c2ccccc2)o1
inactive: [1] > 100 µM | [2] > 100 µM | [4] > 100 µM | [5] > 100 µM | [6] > 100 µM | [7] > 100 µM | [8] > 100 µM | [9] > 100 µM

Cc1cc(Cl)ccc1NC(=O)CCCC(=O)C1CCC/C1=N\NC(=O)CC#N (stereo unspecified)
inactive: [1] > 100 µM | [2] > 100 µM | [3] 17.2 µM | [4] > 100 µM | [5] > 100 µM | [6] > 100 µM | [7] > 100 µM | [8] > 100 µM | [9] > 100 µM

c1ccc2c(c1)Sc1ccccc1N2C1CN2CCC1CC2 (stereo unspecified)
inactive: [1] 15.8 µM | [2] 16.4 µM | [3] 18.2 µM | [4] 15.2 µM | [5] 16.9 µM | [6] 16 µM | [8] 14.4 µM | [9] 13.9 µM

COc1ccc(NC(=O)NS(=O)(=O)c2ccc(C)cc2)nn1
inactive: [1] > 100 µM | [2] > 100 µM | [3] > 100 µM | [4] > 100 µM | [5] > 100 µM | [6] > 100 µM | [7] > 100 µM | [8] > 100 µM | [9] > 100 µM

C[C@]12CCC[C@H](OC=O)C1(O)C[C@H](C(=O)O)CC2 (stereo partly specified)
inactive: [1] > 100 µM | [2] > 100 µM | [3] > 100 µM | [4] 19 µM | [5] > 100 µM | [6] > 100 µM | [7] > 100 µM | [8] > 100 µM | [9] > 100 µM

CC1CC(c2ccccc2)=Nc2ccccc2S1(=O)=O (stereo unspecified)
inactive: [1] 15.1 µM | [2] 20.1 µM | [3] 13.9 µM | [4] 17.8 µM | [5] 15.3 µM | [6] 14.9 µM | [7] > 10 µM | [8] 15 µM | [9] 18.6 µM

Cc1ccccc1NC(=O)Cc1nc2ccccc2s1
inactive: [1] 7.08 µM | [2] 17.6 µM | [3] 1.72 µM | [4] 18.4 µM | [5] 16.4 µM | [7] 16 µM | [8] 18.6 µM | [9] 14.5 µM

Cc1cc2c(c(C(=O)O)c1C)-c1cccc(Cl)c1C2=O
inactive: [1] > 100 µM | [2] > 100 µM | [4] > 100 µM | [5] > 100 µM | [6] > 100 µM | [8] > 100 µM | [9] > 100 µM

COc1ccc2c(c1)[n+]([O-])c(-c1ccc(Br)cc1)c(N)[n+]2[O-]
inactive: [1] 44.6 µM | [2] 24.1 µM | [3] > 100 µM | [4] 34.5 µM | [6] 44.3 µM | [8] 54.6 µM | [9] 68.4 µM

C=CCN(N=O)C(=O)N(CCC)CCCC(NC(C)=O)C(=O)NCc1ccccc1 (stereo unspecified)
inactive: [2] > 100 µM | [3] > 100 µM | [4] > 100 µM | [5] > 100 µM | [6] > 100 µM | [7] > 100 µM | [9] > 100 µM

COc1ccc(C(C#N)NNC(=O)Cc2ccccc2)cc1OC (stereo unspecified)
inactive: [1] > 100 µM | [2] > 100 µM | [3] > 100 µM | [5] > 100 µM | [6] > 100 µM | [8] > 100 µM

O=C(/C=C1/NC(=O)CS1)Nc1ccccc1
inactive: [1] > 100 µM | [2] > 100 µM | [3] > 100 µM | [4] > 100 µM | [5] > 100 µM | [6] > 100 µM | [7] > 100 µM | [8] > 100 µM | [9] > 100 µM

CN(C)CCNC(=O)c1ccccc1Nc1c(Cl)cccc1Cl
inactive: [1] 18.2 µM | [2] 16.9 µM | [4] 10.9 µM | [5] 17.7 µM | [6] 11.1 µM | [8] 16.4 µM | [9] 9.66 µM

COC(=O)/C(=N\NC(N)=O)C(C(=O)C=C(C)C)C(=O)C(=O)Nc1ccc(Cl)c(Cl)c1 (stereo unspecified)
inactive: [1] > 100 µM | [2] > 100 µM | [3] > 100 µM | [4] > 100 µM | [5] > 100 µM | [6] > 100 µM | [7] > 100 µM | [8] > 100 µM | [9] > 100 µM

CC(C)N1C(C)[C@@H](c2ccccc2)O[P@]1(=O)CC1=CCCCC1 (stereo partly specified)
inactive: [1] > 100 µM | [3] > 100 µM | [4] 94.8 µM | [5] 92.5 µM | [6] > 100 µM | [9] > 100 µM

Nc1ccc(C(=O)N/C(=C\c2cccc([N+](=O)[O-])c2)c2nc3cc(Cl)ccc3[nH]2)cc1
inactive: [1] > 100 µM | [4] 17 µM | [5] 31 µM | [6] > 100 µM | [7] 63 µM | [8] > 100 µM | [9] 43.1 µM

CC1(C)OC(COCCOCCCCCO)C(COCCOCCCCCO)O1 (stereo unspecified)
inactive: [1] > 100 µM | [2] > 100 µM | [3] > 100 µM | [4] > 100 µM | [5] > 100 µM | [6] > 100 µM | [7] > 100 µM | [8] > 100 µM
